Patent US20050245399A1, “Pyrazole derivatives as herbicidal compositions containing them” (ISHIHARA SANGYO KAISHA, LTD., priority 2004, published 2005)

Tests used:
Type in all cases: in vivo
[1] = test system: prickly sida (Sida spinosa L.), SIDSP; test: Test Example 2 post-emergence (foliage treatment) herbicidal activity, SIDSP; conditions: 63 g a.i./ha
Method in brief: (§1)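 A small sprayer delivered the diluted WP or EC formulation (500 L/ha water, 0.1% v/v spreader) over emerged seedlings in upland soil pots. Damage relative to untreated plants was graded visually from 0 to 100% three weeks or so later (days 20-23).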

[2] = test system: velvetleaf (Abutilon theophrasti), ABUTH; test: Test Example 2 post-emergence (foliage treatment) herbicidal activity, ABUTH; conditions: 63 g a.i./ha
Method in brief: as §1

[3] = test system: japanese ribbon wapato (Sagittaria pygmaea: SA GPY); test: Test Example 3 water application herbicidal activity (paddy), SAGPY; conditions: 63 g a.i./ha, water application under submerged condition, tubers planted, visually observed 14th day after application; 0 = untreated control, 100 = complete kill
From the text: (§2) Paddy field soil was put into a 1/1,000,000 ha pot and seeds of barnyardgrass (Echinochiloa oryzicola: ECHOR) and japanese bulrush (Scirpus juncoides: SCPJO) were sown and slightly covered with soil. Then the pot was left to stand still in a greenhouse in a state where the depth of flooding water was from 0.5 to 1 cm, and one day later, tubers of japanese ribbon wapato (Sagittaria pygmaea: SA GPY) were planted. Thereafter, the depth of flooding water was maintained at a level of from 3 to 4 cm, and when barnyardgrass and japanese bulrush reached a 0.5 leaf stage, an aqueous diluted solution of a wettable powder or emulsifiable concentrate having the compound of the present invention formulated in accordance with a usual formulation method, was uniformly applied under submerged condition by a pipette so that the dose of the active ingredient would be at a predetermined level. On the other hand, paddy filed soil was put into a 1/1,000,000 ha pot and puddled and leveled, and the depth of flooding water was from 3 to 4 cm. One day later, rice (Oryza sativa L.: ORYSA) of 2 leaf stage was transplanted in a depth of 3 cm. On the 4th day after the transplantation, the compound of the present invention was applied in the same manner as described above. On the 14th day after the application of the herbicide, the growth of barnyardgrass, japanese burlush and japanese ribbon wapato was visually observed and on the 21st day after the application of the herbicide, the growth of rice was visually observed, and the herbicidal effects were evaluated by growth controlling degrees (%) ranging from 0 (equivalent to the untreated control) to 100 (complete kill), whereby the results shown in Table 6, were obtained. Compound Nos. in Table 6 correspond to Compound Nos. in Table 1 and 2 given hereinbefore.

[4] = test system: barnyardgrass (Echinochloa crus-galli L.), ECHCG; test: Test Example 2 post-emergence (foliage treatment) herbicidal activity, ECHCG; conditions: 63 g a.i./ha
Method in brief: (§3)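 Leaf stages at treatment differed per species: 1.1-2.1 for ECHCG, 1.0-2.0 for DIGSA, 0.1-1.5 for AMARE and 1.0-2 for ORYSA. Plants grew in pots of upland soil and were sprayed with wettable powder or emulsifiable concentrate in water (500 L/ha) plus spreader at 0.1% (v/v). Visual % control followed on days 20-23.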

[5] = test system: japanese bulrush (Scirpus juncoides: SCPJO); test: Test Example 3 water application herbicidal activity (paddy), SCPJO; conditions: 63 g a.i./ha, water application under submerged condition at 0.5 leaf stage, visually observed 14th day after application; 0 = untreated control, 100 = complete kill
From the text: as §2

[6] = test system: soybean (Glycine max Merr.): GLXMA; test: Test Example 1 pre-emergence herbicidal activity, GLXMA; conditions: Rate 63 g a.i./ha, visually observed 20th to 23rd day after application
Method in brief: (§4)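 Upland soil pot test. Formulated compound (wettable powder or emulsifiable concentrate) in water, 500 L/ha, sprayed one day after sowing before emergence; % control rated by eye on day 20–23.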

[7] = test system: corn (Zea mays L.): ZEAMX; test: Test Example 1 pre-emergence herbicidal activity, ZEAMX; conditions: Rate 63 g a.i./ha, visually observed 20th to 23rd day after application
Method in brief: as §4

[8] = test system: velvetleaf (Abutilon theophrasti): ABUTH; test: Test Example 1 pre-emergence herbicidal activity, ABUTH; conditions: Rate 63 g a.i./ha, visually observed 20th to 23rd day after application
Method in brief: as §4

[9] = test system: prickly sida (Sida spinosa L.): SEDSP; test: Test Example 1 pre-emergence herbicidal activity, SIDSP; conditions: Rate 63 g a.i./ha, visually observed 20th to 23rd day after application
Method in brief: as §4

[10] = test system: barnyardgrass (Echinochiloa oryzicola: ECHOR); test: Test Example 3 water application herbicidal activity (paddy), ECHOR; conditions: 63 g a.i./ha, water application under submerged condition at 0.5 leaf stage, visually observed 14th day after application; 0 = untreated control, 100 = complete kill
From the text: as §2

[11] = test system: soybean (Glycine max Merr.), GLXMA; test: Test Example 2 post-emergence (foliage treatment) herbicidal activity, GLXMA; conditions: 63 g a.i./ha
Method in brief: as §1

[12] = test system: rice (Oryza sativa L.): ORYSA; test: Test Example 1 pre-emergence herbicidal activity, ORYSA; conditions: Rate 63 g a.i./ha, visually observed 20th to 23rd day after application
Method in brief: as §4

[13] = test system: corn (Zea mays L.), ZEAMX; test: Test Example 2 post-emergence (foliage treatment) herbicidal activity, ZEAMX; conditions: 63 g a.i./ha
Method in brief: as §1

[14] = test system: green foxtail (Setaria viridis L.): SETVI; test: Test Example 1 pre-emergence herbicidal activity, SETVI; conditions: Rate 63 g a.i./ha, visually observed 20th to 23rd day after application
Method in brief: as §4

[15] = test system: crabgrass (Digitaria sanguinalis L.): DIGSA; test: Test Example 1 pre-emergence herbicidal activity, DIGSA; conditions: Rate 63 g a.i./ha, visually observed 20th to 23rd day after application
Method in brief: as §4

[16] = test system: rice (Oryza sativa L.), ORYSA; test: Test Example 2 post-emergence (foliage treatment) herbicidal activity, ORYSA; conditions: 63 g a.i./ha
Method in brief: as §3

[17] = test system: green foxtail (Setaria viridis L.), SETVI; test: Test Example 2 post-emergence (foliage treatment) herbicidal activity, SETVI; conditions: 63 g a.i./ha
Method in brief: as §1

[18] = test system: wheat (Triticum aestivum L.): TRZAX; test: Test Example 1 pre-emergence herbicidal activity, TRZAX; conditions: Rate 63 g a.i./ha, visually observed 20th to 23rd day after application
Method in brief: as §4

[19] = test system: wheat (Triticum aestivum L.), TRZAX; test: Test Example 2 post-emergence (foliage treatment) herbicidal activity, TRZAX; conditions: 63 g a.i./ha
Method in brief: as §1

[20] = test system: barnyardgrass (Echinochloa crus-galli L.): ECHCG; test: Test Example 1 pre-emergence herbicidal activity, ECHCG; conditions: Rate 63 g a.i./ha, visually observed 20th to 23rd day after application
Method in brief: as §4

[21] = test system: crabgrass (Digitaria sanguinalis L.), DIGSA; test: Test Example 2 post-emergence (foliage treatment) herbicidal activity, DIGSA; conditions: 63 g a.i./ha
Method in brief: as §3

[22] = test system: redroot pigweed (Amaranthus retroflexus L.): AMARE; test: Test Example 1 pre-emergence herbicidal activity, AMARE; conditions: Rate 63 g a.i./ha, visually observed 20th to 23rd day after application
Method in brief: as §4

[23] = test system: redroot pigweed (Amaranthus retroflexus L.), AMARE; test: Test Example 2 post-emergence (foliage treatment) herbicidal activity, AMARE; conditions: 63 g a.i./ha
Method in brief: as §3

SMILES	growth controlling degree, SIDSP [1]	growth controlling degree, ABUTH [2]	growth controlling degrees (%) SAGPY [3]	growth controlling degree, ECHCO [4]	growth controlling degrees (%) SCPJO [5]	Pre-emergence Herbicidal Activity GLXMA (growth controlling degree) [6]	Pre-emergence Herbicidal Activity ZEAMX (growth controlling degree) [7]	Pre-emergence Herbicidal Activity ABUTH (growth controlling degree) [8]	Pre-emergence Herbicidal Activity SIDSP (growth controlling degree) [9]	growth controlling degrees (%) ECHOR [10]	growth controlling degree, GLXMA [11]	Pre-emergence Herbicidal Activity ORYSA (growth controlling degree) [12]	growth controlling degree, ZEAMX [13]	Pre-emergence Herbicidal Activity SETVI (growth controlling degree) [14]	Pre-emergence Herbicidal Activity DIGSP (growth controlling degree) [15]	growth controlling degree, ORYSA [16]	Pre-emergence Herbicidal Activity TRZAX (growth controlling degree) [18]	growth controlling degree, TRZAX [19]	Pre-emergence Herbicidal Activity ECHCG (growth controlling degree) [20]	Pre-emergence Herbicidal Activity AMARE (growth controlling degree) [22]	other results
COc1c(Cl)cc(F)c(-c2nn(C)c(OC(F)F)c2Cl)c1NC(=O)OCCN(C)C [Compound 1-66]	100%	100%	0%	20%	30%	0%	0%	20%	20%	90%	60%	0%	40%	10%	20%	50%	0%	20%	0%	–	growth controlling degree, SETVI [17]: 60%; growth controlling degree, DIGSP [21]: 40%
COc1c(Cl)cc(F)c(-c2nn(C)c(OC(F)F)c2Cl)c1NC(=O)Oc1ccccc1 [Compound 1-67]	100%	100%	100%	70%	100%	0%	0%	70%	80%	100%	70%	40%	30%	100%	100%	60%	10%	30%	50%	100%	growth controlling degree, DIGSP [21]: 70%; growth controlling degree, AMARE [23]: 100%
COc1c(Cl)cc(F)c(-c2nn(C)c(OC(F)F)c2Cl)c1NC(=O)OCCCl [Compound 1-68]	100%	100%	80%	70%	95%	0%	10%	100%	100%	100%	60%	40%	50%	100%	100%	60%	40%	20%	95%	100%	growth controlling degree, SETVI [17]: 100%
COc1c(Cl)cc(F)c(-c2nn(C)c(OC(F)F)c2Cl)c1NC(=O)OCc1cccnc1 [Compound 1-70]	100%	100%	100%	80%	80%	0%	0%	100%	100%	100%	80%	40%	80%	70%	80%	95%	0%	30%	90%	100%	growth controlling degree, DIGSP [21]: 60%; growth controlling degree, AMARE [23]: 100%
COc1c(Cl)cc(F)c(-c2nn(C)c(OC(F)F)c2Cl)c1NC(=O)OCc1ccccc1 [Compound 1-71]	100%	100%	100%	100%	70%	10%	30%	100%	100%	100%	80%	60%	70%	100%	100%	80%	30%	60%	98%	100%	–
COc1c(Cl)cc(F)c(-c2nn(C)c(OC(F)F)c2Cl)c1NC(=O)C=Cc1ccc(C)cc1 [Compound 1-255]	100%	100%	–	50%	–	0%	0%	0%	0%	–	50%	0%	20%	10%	10%	40%	0%	10%	0%	70%	growth controlling degree, SETVI [17]: 50%; growth controlling degree, DIGSP [21]: 30%; growth controlling degree, AMARE [23]: 100%
